Measurements taken from US5620864A, “Acceptor for fucosyl transferase” (Health Research, Inc., priority 1992, dated 1997).
“And” between values parts separate entries of the source, which are not always exact repeats. Equal values may be shown once.

Assays:
[1] = test system: serum α1,3-L-fucosyltransferase; assay: Acceptor ability in presence of the competitive substrate (3'-sulfo LacNAc vs 2'-methyl LacNAc), ovarian cancer sera; type: biochemical, human; settings: for Km: serum enzyme
Protocol: (§1) An incubation mixture contained 50 mM HEPES-NaOH, pH 7.5, 5 mM MnC12, 7 mM ATP, 3 mM NaN3, the acceptor 0.3 mM (for serum enzyme) or 3.0 mM (for tumor enzyme), 0.125 μCi of GDP-[U-^14 C] Fuc (Sp. Act. 216 mCi/mmol) and enzyme in a total volume of 0.10 ml; the control incubation mixture had everything except the acceptor. At the end of incubation at 37° C. for 18 h, the mixture was diluted with 1 ml water and passed through Dowex-1-C1 column (1 ml in a Pasteur pipet). The column was washed twice with 1 ml water; the breakthrough and wash, which contained the [^14 C] fucosylated neutral acceptor, were collected together in a scintillation vial and counted for radioactivity using the scintillation coctail 3a70 (Research Products International, Mount Prospects, Ill.) and Beckman LS9000. The Dowex column was then eluted successively with 3 ml each of 0.1M and 0.2M NaCl; these eluates which contained the [^14 C] fucosylated sulfated acceptors, were counted for radioactivity as before. Corrections were made by subtracting the radioactivity in the water and NaCl eluates of the control incubation mixture from the corresponding test fractions. The duplicate runs of samples gave almost identical values, the difference being <5%.
(§2) The superiority of 3'-sulfo LacNAc over 2'-methyl LacNAc as the substrate for measuring serum α1,3 fucosyltransferase was tested in three different ways. First, the incubation mixtures in duplicate contained 0.3 mM 3'-sulfo LacNAc and varying amounts of 2'-methyl LacNAc (0 to 7.5 mM); the incorporation of [^14 C] fucose by the serum enzyme into both substrates was measured (Table III). The incorporation of [^14 C] fucose into 3'-sulfo LacNAc decreased and into 2'-methyl LacNAc increased with the increase in the concentration of the latter. […] 25 fold less than 2' methyl LacNAc. Secondly, the incubation mixtures in duplicate contained 3.0 mM 2'-methyl LacNAc and varying amounts of 3'-sulfo LacNAc (0 to 0.75 mM); the incorporation of [^14 C] fucose by the same serum enzyme into both substrates was measured (Table III). The [^14 C] fucose incorporation into 2'-methyl LacNAc decreased and into 3'-sulfo LacNAc increased by increasing the concentration of the latter. […] Thirdly, both 2'-methyl LacNAc and 3'-sulfo LacNAc at 0.3 mM concentration were incubated separately in duplicates with six ovarian cancer sera and one normal serum; the incorporation of [^14 C] fucose into these acceptors were quantitated (Table IV). The [^14 C] fucose incorporation into 3'-sulfo LacNAc was consistently higher (4-5 fold) than that into 2'-methyl LacNAc, including the assay of the normal serum. […] These values indicate that 3'-sulfo LacNAc is a very high affinity acceptor for α1,3 fucosyltransferase. The [^14 C] fucosylated product arising from 3'-sulfo LacNAc has been tentatively identified as 3'-sulfo, 3-fucosyl LacNAc by comparing strictly its mobility on paper with the synthetic authentic compound 3'-sulfo, 3-fucosyl LacNAc (see FIG. 5).

[2] = target: T1, serum α1,3-L-fucosyltransferase (Homo sapiens, UniProt P51993); assay: Assay of α1,3-fucosyltransferase with various synthetic acceptors, ovarian cancer sera as enzyme source; type: biochemical; settings: for [14C] Fucose Incorporated (CPM): acceptor 0.3 mM, 37° C. 18 h
T1 construct: Sera were collected from healthy females and ovarian cancer patients; from tissue; host or cells: blood serum of ovarian cancer patients and healthy females
T1 sequence (P51993 35-359 limits assumed): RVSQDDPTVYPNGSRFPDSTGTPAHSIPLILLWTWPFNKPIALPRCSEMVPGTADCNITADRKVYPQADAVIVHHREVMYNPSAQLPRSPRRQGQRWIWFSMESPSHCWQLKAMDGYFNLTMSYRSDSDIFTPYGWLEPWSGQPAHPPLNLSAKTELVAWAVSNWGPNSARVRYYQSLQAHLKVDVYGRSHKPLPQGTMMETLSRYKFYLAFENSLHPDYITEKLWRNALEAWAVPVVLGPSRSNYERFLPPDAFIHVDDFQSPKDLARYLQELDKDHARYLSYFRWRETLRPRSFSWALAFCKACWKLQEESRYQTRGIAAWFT
Protocol: (§3) Sera were collected from healthy females and ovarian cancer patients admitted to Roswell Park Cancer Institute in Buffalo, N.Y., USA. Ovarian tumor tissues were obtained during surgical procedures from patients with ovarian cancer. Both sera and tissues were stored frozen at -70° C. until use.
as §1
The activity of serum α1,3-fucosyltransferase was measured with the specific substrate 2'-methyl LacNAc and compared with the ability of several other synthetic substrates to act as an acceptor of fucose.
When the structure of the acceptor 2'-methyl LacNAc was modified by replacing the methyl group with sulfate group in C-2', 3', 6' or 6 position and tested their ability to act as the acceptor of fucose, the following novel findings emerged. […] The β-benzyl glycoside of 3' sulfo LacNAc was quite active (168.4%) but less than the parent compound.

[3] = target: T1, serum α1,3-L-fucosyltransferase; assay: Detection of serum α1,3-L-fucosyltransferase in six ovarian cancer sera and one normal serum; type: biochemical; settings: for percentage of the ratio between the CPM obtained for cancer serum and normal serum: acceptor 0.30 mM; for α1,3 fucosyltransferase activity of the cancer sera as compared to the normal serum: range over six ovarian cancer sera, acceptor 0.3 mM
Protocol: as §3, §1, §2

[4] = 2'-Methyl LacNAc 3.0 mM + 3'-Sulfo LacNAc 0 mM
[5] = 2'-Methyl LacNAc 3.0 mM + 3'-Sulfo LacNAc 0.15 mM
[6] = 2'-Methyl LacNAc 3.0 mM + 3'-Sulfo LacNAc 0.30 mM
[7] = 2'-Methyl LacNAc 3.0 mM + 3'-Sulfo LacNAc 0.45 mM
[8] = 2'-Methyl LacNAc 3.0 mM + 3'-Sulfo LacNAc 0.65 mM
[9] = 2'-Methyl LacNAc 3.0 mM + 3'-Sulfo LacNAc 0.75 mM
[10] = 3'-Sulfo LacNAc 0.3 mM + 2'-Methyl LacNAc 0 mM
[11] = 3'-Sulfo LacNAc 0.3 mM + 2'-Methyl LacNAc 1.5 mM
[12] = 3'-Sulfo LacNAc 0.3 mM + 2'-Methyl LacNAc 3.0 mM
[13] = 3'-Sulfo LacNAc 0.3 mM + 2'-Methyl LacNAc 4.5 mM
[14] = 3'-Sulfo LacNAc 0.3 mM + 2'-Methyl LacNAc 6.0 mM
[15] = 3'-Sulfo LacNAc 0.3 mM + 2'-Methyl LacNAc 7.5 mM

CO[C@H]1[C@H](O[C@H]2[C@H](O)[C@@H](NC(C)=O)C(O)O[C@@H]2CO)O[C@H](CO)[C@H](O)[C@@H]1O (some centres unmarked) [2'-methyl LacNAc]
Incorporation of [14C] Fucose (CPM) [1, 4]: 3664 CPM
Incorporation of [14C] Fucose (CPM) [1, 5]: 2581 CPM
Incorporation of [14C] Fucose (CPM) [1, 6]: 2191 CPM
Incorporation of [14C] Fucose (CPM) [1, 7]: 1737 CPM
Incorporation of [14C] Fucose (CPM) [1, 8]: 1184 CPM
Incorporation of [14C] Fucose (CPM) [1, 9]: 1187 CPM
inhibition of the [14C] fucose incorporation into 3'-sulfo LacNAc ([1]; 2'-methyl LacNAc 7.5 mM, 3'-sulfo LacNAc 0.3 mM): 43%
Km ([1]; 2'-methyl LacNAc in presence of 0.3 mM 3'-sulfo LacNAc): 6.67 mM
Incorporation of [14C] Fucose (CPM) [1, 10]: 157 CPM
Incorporation of [14C] Fucose (CPM) [1, 11]: 1143 CPM
Incorporation of [14C] Fucose (CPM) [1, 12]: 1614 CPM
Incorporation of [14C] Fucose (CPM) [1, 13]: 1973 CPM
Incorporation of [14C] Fucose (CPM) [1, 14]: 2698 CPM
Incorporation of [14C] Fucose (CPM) [1, 15]: 2788 CPM
inhibition by 2'-methyl LacNAc of incorporation into 3'-sulfo LacNAc ([1]; 3'-sulfo LacNAc present at 3.0 mM): no inhibition
[14C] Fucose Incorporated (CPM) [2]: 1730 CPM
Incorporation of [14C] Fucose (CPM) into the Acceptor (0.30 mM) ([3]; Normal Serum): 397 CPM
Incorporation of [14C] Fucose (CPM) into the Acceptor (0.30 mM) ([3]; Ovarian Cancer Serum 1): 1325 CPM
percentage of the ratio between the CPM obtained for cancer serum and normal serum ([3]; Ovarian Cancer Serum 1): 334%
Incorporation of [14C] Fucose (CPM) into the Acceptor (0.30 mM) ([3]; Ovarian Cancer Serum 2): 1724 CPM
percentage of the ratio between the CPM obtained for cancer serum and normal serum ([3]; Ovarian Cancer Serum 2): 434%
Incorporation of [14C] Fucose (CPM) into the Acceptor (0.30 mM) ([3]; Ovarian Cancer Serum 3): 1359 CPM
percentage of the ratio between the CPM obtained for cancer serum and normal serum ([3]; Ovarian Cancer Serum 3): 342%
Incorporation of [14C] Fucose (CPM) into the Acceptor (0.30 mM) ([3]; Ovarian Cancer Serum 4): 1347 CPM
percentage of the ratio between the CPM obtained for cancer serum and normal serum ([3]; Ovarian Cancer Serum 4): 339%
Incorporation of [14C] Fucose (CPM) into the Acceptor (0.30 mM) ([3]; Ovarian Cancer Serum 5): 699 CPM
percentage of the ratio between the CPM obtained for cancer serum and normal serum ([3]; Ovarian Cancer Serum 5): 176%
Incorporation of [14C] Fucose (CPM) into the Acceptor (0.30 mM) ([3]; Ovarian Cancer Serum 6): 975 CPM
percentage of the ratio between the CPM obtained for cancer serum and normal serum ([3]; Ovarian Cancer Serum 6): 246%
α1,3 fucosyltransferase activity of the cancer sera as compared to the normal serum [3]: 176%-434%

CC(=O)N[C@H]1C(O)O[C@H](CO)[C@@H](O[C@@H]2O[C@H](CO)[C@H](O)[C@H](OS(=O)(=O)O)[C@H]2O)[C@@H]1O (stereo partly drawn) [3'-Sulfo-LacNAc, SODIUM β-D-GALACTOPYRANOSYL 3-SULFATE-(1→4)-2-ACETAMIDO-2-DEOXY-D-GLUCOPYRANOSE]
Incorporation of [14C] Fucose (CPM) [1, 4]: 140 CPM
Incorporation of [14C] Fucose (CPM) [1, 5]: 1294 CPM
Incorporation of [14C] Fucose (CPM) [1, 6]: 2181 CPM
Incorporation of [14C] Fucose (CPM) [1, 7]: 2417 CPM
Incorporation of [14C] Fucose (CPM) [1, 8]: 2373 CPM
Incorporation of [14C] Fucose (CPM) [1, 9]: 2560 CPM
Incorporation of [14C] Fucose (CPM) [1, 10]: 2520 CPM
Incorporation of [14C] Fucose (CPM) [1, 11]: 2132 CPM
Incorporation of [14C] Fucose (CPM) [1, 12]: 1872 CPM
Incorporation of [14C] Fucose (CPM) [1, 13]: 1748 CPM
Incorporation of [14C] Fucose (CPM) [1, 14]: 1712 CPM
Incorporation of [14C] Fucose (CPM) [1, 15]: 1428 CPM
inhibition of the [14C] fucose incorporation into 2'-methyl LacNAc ([1]; 3'-Sulfo LacNAc 0.75 mM, 2'-methyl LacNAc 3.0 mM): 68%
Km ([1]; 3'-sulfo LacNAc in presence of 3.0 mM 2'-methyl LacNAc): 0.12 mM
Relative Percent ([2]; 2'-methyl LacNAc = 100): 340.8%
Relative Percent ([2]; 2'-methyl LacNAc = 100, listed as 3'-Sulfo LacNAc): 340.8%
Relative Percent ([2]; 2'-methyl LacNAc = 100, listed as 3'-sulfo LacNAc): 340.8%
Relative Percent ([2]; 2'-methyl LacNAc = 100, listed as 3'-sulfo-LacNAc): 340%
[14C] Fucose Incorporated (CPM) [2]: 5894 CPM
Incorporation of [14C] Fucose (CPM) into the Acceptor (0.30 mM) ([3]; Normal Serum): 1543 CPM
Ratio B/A (CPM into 3'-Sulfo LacNAc / CPM into 2'-Methyl LacNAc) ([3]; Normal Serum): 3.89
Incorporation of [14C] Fucose (CPM) into the Acceptor (0.30 mM) ([3]; Ovarian Cancer Serum 1): 7310 CPM
Ratio B/A (CPM into 3'-Sulfo LacNAc / CPM into 2'-Methyl LacNAc) ([3]; Ovarian Cancer Serum 1): 5.52
percentage of the ratio between the CPM obtained for cancer serum and normal serum ([3]; Ovarian Cancer Serum 1): 474%
Incorporation of [14C] Fucose (CPM) into the Acceptor (0.30 mM) ([3]; Ovarian Cancer Serum 2): 9816 CPM
Ratio B/A (CPM into 3'-Sulfo LacNAc / CPM into 2'-Methyl LacNAc) ([3]; Ovarian Cancer Serum 2): 6.69
percentage of the ratio between the CPM obtained for cancer serum and normal serum ([3]; Ovarian Cancer Serum 2): 636%
Incorporation of [14C] Fucose (CPM) into the Acceptor (0.30 mM) ([3]; Ovarian Cancer Serum 3): 5261 CPM
Ratio B/A (CPM into 3'-Sulfo LacNAc / CPM into 2'-Methyl LacNAc) ([3]; Ovarian Cancer Serum 3): 3.87
percentage of the ratio between the CPM obtained for cancer serum and normal serum ([3]; Ovarian Cancer Serum 3): 341%
Incorporation of [14C] Fucose (CPM) into the Acceptor (0.30 mM) ([3]; Ovarian Cancer Serum 4): 5480 CPM
Ratio B/A (CPM into 3'-Sulfo LacNAc / CPM into 2'-Methyl LacNAc) ([3]; Ovarian Cancer Serum 4): 4.06
percentage of the ratio between the CPM obtained for cancer serum and normal serum ([3]; Ovarian Cancer Serum 4): 355%
Incorporation of [14C] Fucose (CPM) into the Acceptor (0.30 mM) ([3]; Ovarian Cancer Serum 5): 3088 CPM
Ratio B/A (CPM into 3'-Sulfo LacNAc / CPM into 2'-Methyl LacNAc) ([3]; Ovarian Cancer Serum 5): 4.42
percentage of the ratio between the CPM obtained for cancer serum and normal serum ([3]; Ovarian Cancer Serum 5): 200%
Incorporation of [14C] Fucose (CPM) into the Acceptor (0.30 mM) ([3]; Ovarian Cancer Serum 6): 5483 CPM
Ratio B/A (CPM into 3'-Sulfo LacNAc / CPM into 2'-Methyl LacNAc) ([3]; Ovarian Cancer Serum 6): 5.62
percentage of the ratio between the CPM obtained for cancer serum and normal serum ([3]; Ovarian Cancer Serum 6): 355%
sensitivity / [14C] fucose incorporation relative to 2'-methyl LacNAc ([3]; blood sera, acceptors 0.3 mM): 3 to 5 fold and 4-5 fold
α1,3 fucosyltransferase activity of the cancer sera as compared to the normal serum [3]: 200%-636%
